Patent publication US20250188079A1, “INHIBITING CYCLIC AMP-RESPONSIVE ELEMENT-BINDING PROTEIN (CREB)” (Forma Therapeutics, Inc., priority 2019, published 2025)

molecular target: CBP (Homo sapiens (Human), UniProt Q92793); test: HTRF biochemical assay for CBP activity (TR-FRET, bromodomain); assay type: binding; details: geometric mean, 10-point 3-fold dilution 33 μM to 1.7 nM, read-out: BROMO IC50 TRF TB CBP (μM gmean)
Outline: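 Compounds were tested as 10-point, 3-fold dilutions (33 μM to 1.7 nM final) against CBP protein and peptide ligand in pH 7.5 Hepes buffer with GSH, BGG, BSA and Triton X-100 at room temperature for varying times. The TR-FRET 520/490 ratio gave % inhibition versus no-enzyme and DMSO controls, and IC50 came from 4-parameter logistic fits.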

Sequence of CBP (Q92793 1085-1192): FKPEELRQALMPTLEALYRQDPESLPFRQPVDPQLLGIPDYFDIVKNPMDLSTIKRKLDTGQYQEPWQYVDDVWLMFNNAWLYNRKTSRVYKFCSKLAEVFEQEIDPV

IC50, 0.01 to 0.1 µM:
COC(=O)N1CCc2ccc3c(nc(C4CCCCC4)n3C[C@H]3CCCC[C@@H]3C(=O)O)c2C1 [Compound 196], COC(=O)N1CCc2ccc3c(nc(C4CCCCC4)n3C[C@@H](C(=O)O)c3ccccc3)c2C1 [Compound 197], COC(=O)N1CCc2ccc3c(nc(N4CCNCC4)n3[C@@H](C)Cc3ccccc3)c2C1 [Compound 198], COC(=O)N1CCc2ccc3c(nc(C4CCCCC4)n3C[C@@H](O)c3cccc(C(=O)O)c3)c2C1 [Compound 199], COC(=O)N1CCc2ccc3c(nc([C@H]4CC[C@H](C(=O)O)CC4)n3[C@@H](C)CC3CCCCC3)c2C1 [Compound 200], COC(=O)N1CCc2c([C@H]3CCOC3)cc3c(nc([C@H]4CC[C@H](C(=O)O)CC4)n3[C@H](C)Cc3ccccc3)c2C1 [Compound 201], COC(=O)N1CCc2ccc3c(nc([C@H]4CC[C@H](C(=O)O)CC4)n3[C@@H](C)C[C@H]3CC[C@H](OC)CC3)c2C1 [Compound 202], COC(=O)N1CCc2ccc3c(nc(C4CCCCC4)n3[C@@H](C)C[C@H]3CCCC[C@H]3C(=O)O)c2C1 [Compound 204], COC(=O)N1CCc2ccc3c(nc(C4CCCC4)n3C[C@@H](C(=O)O)c3ccccc3)c2C1 [Compound 205], COC(=O)N1CCc2ccc3c(nc(C4CCCCC4)n3[C@H](Cc3ccccc3)C(=O)O)c2C1 [Compound 206], COC(=O)N1CCc2ccc3c(nc(C4CCN(C(C)=O)CC4)n3[C@@H](C)Cc3cccnc3)c2C1 [Compound 207], COC(=O)N1CCc2ccc3c(nc(-c4ccc(C(=O)O)c(OC)c4)n3[C@@H](C)Cc3ccccc3)c2C1 [Compound 208], COC(=O)N1CCc2ccc3c(nc([C@H]4CCC[C@H](C(=O)O)C4)n3Cc3ccc(OC(F)F)cc3)c2C1 [Compound 209], COC(=O)N1CCc2ccc3c(nc(C4CCCCC4)n3[C@@H](C)C[C@@H]3CCCC[C@H]3C(=O)O)c2C1 [Compound 210], COC(=O)N1CCc2ccc3c(nc([C@H]4CC[C@H](C(=O)O)CC4)n3C[C@@H]3CCc4ccccc4C3)c2C1 [Compound 211], COC(=O)N1CCc2ccc3c(nc([C@H]4CC[C@H](C(=O)O)CC4)n3[C@H](C)C[C@@H]3CCCOC3)c2C1 [Compound 212], COC(=O)N1CCc2ccc3c(nc(C4CCCCC4)n3[C@@H](CC(=O)O)c3ccccc3)c2C1 [Compound 213], COC(=O)N1CCc2ccc3c(nc([C@H]4CC[C@H](C(=O)O)CC4)n3C[C@@H](OC)c3ccccc3)c2C1 [Compound 214], COC(=O)N1CCc2ccc3c(nc([C@@H]4CCC[C@@H](C(=O)O)C4)n3CC[C@H]3CC[C@@H](OC)CC3)c2C1 [Compound 215], COC(=O)N1CCc2ccc3c(nc([C@H]4CC[C@H](C(=O)O)CC4)n3[C@@H](C)Cc3ccncc3)c2C1 [Compound 216], COC(=O)N1CCc2ccc3c(nc([C@@H]4CCC[C@@H](C(=O)O)C4)n3[C@H](C)Cc3ccc(F)c(F)c3)c2C1 [Compound 217], COC(=O)N1CCc2ccc3c(nc([C@H]4CC[C@@H](C(=O)O)C4)n3[C@@H](C)Cc3ccccc3C)c2C1 [Compound 218], COC(=O)N1CCc2ccc3c(nc(C4CCCCC4)n3CC[C@@H]3CCCC[C@@H]3C(=O)O)c2C1 [Compound 219], COC(=O)N1CCc2ccc3c(nc([C@H]4CC[C@H](C(=O)O)CC4)n3[C@@H](C)C[C@H]3CC[C@@H](OC)CC3)c2C1 [Compound 220], COC(=O)N1CCc2ccc3c(nc(C4CCCCC4)n3C[C@H]3CC[C@@H](C(=O)O)CC3)c2C1 [Compound 221], COC(=O)N1CCc2ccc3c(nc(N4CC[C@H](C(=O)O)C4)n3[C@@H](C)Cc3ccccc3)c2C1 [Compound 222], COC(=O)N1CCc2c(Cl)cc3c(nc(C4CCCCC4)n3C[C@H](C(=O)O)c3ccccc3)c2C1 [Compound 223], COC(=O)N1CCc2ccc3c(nc([C@H]4CC[C@](C)(C(=O)O)CC4)n3[C@@H](C)Cc3ccccc3)c2C1 [Compound 224], COC(=O)N1CCc2ccc3c(nc([C@H]4CCC[C@H](C(=O)O)C4)n3Cc3cccc(Cl)n3)c2C1 [Compound 225], COC(=O)N1CCc2ccc3c(nc([C@H]4CC[C@H](C(=O)O)CC4)n3[C@@H](C)C[C@H]3CC[C@@H](OC(F)(F)F)CC3)c2C1 [Compound 226], COC(=O)N1CCc2ccc3c(nc(C4CCCCC4)n3C[C@@H]3CCCC[C@H]3C(=O)O)c2C1 [Compound 227], CNC(=O)N1CCc2ccc3c(nc([C@H]4CC[C@H](C(=O)O)CC4)n3[C@@H](C)Cc3ccccc3)c2C1 [Compound 228], COC(=O)N1CCc2ccc3c(nc([C@H]4CC[C@@H](C(=O)O)CC4)n3[C@@H](C)Cc3ccccc3)c2C1 [Compound 230], COC(=O)N1CCc2ccc3c(nc([C@H]4CC[C@](C)(C(=O)O)CC4)n3[C@@H](C)Cn3cc(Cl)cn3)c2C1 [Compound 231], COC(=O)N1Cc2c(ccc3c2nc(C2CCCCC2)n3CCc2ccccc2)C[C@H]1C [Compound 232], COC(=O)N1CCc2ccc3c(nc(N4CCN(C(C)=O)CC4)n3[C@@H](C)Cc3cccnc3)c2C1 [Compound 234], COC(=O)N1CCc2ccc3c(nc(C4CCCCC4)n3CC[C@@H]3CCCC[C@H]3C(=O)O)c2C1 [Compound 235], COC(=O)N1CCc2ccc3c(nc([C@H]4CC[C@H](C(=O)O)CC4)n3CCn3cc(Cl)cn3)c2C1 [Compound 236], COC(=O)N1CCc2ccc3c(nc(C4CCCCC4)n3[C@H](C)C[C@H]3CC[C@H](C(=O)O)CC3)c2C1 [Compound 237], COC(=O)N1Cc2c(ccc3c2nc(C2CCCCC2)n3CCc2ccccc2)CC1C (stereo not drawn) [Compound 238], COC(=O)N1CCc2ccc3c(nc(C4CCCCC4)n3[C@H](C)C[C@H]3CCCC[C@H]3C(=O)O)c2C1 [Compound 239], COC(=O)N1CCc2ccc3c(nc(C4CCCCC4)n3C[C@@H](C(=O)O)c3cc(F)ccc3OC)c2C1 [Compound 240], COC(=O)N1CCc2ccc3c(nc(C4CCCCC4)n3CCc3ccc(OC)c(C(=O)O)c3)c2C1 [Compound 242], COC(=O)N1CCc2ccc3c(nc(C4CCCCC4)n3CC[C@H]3CC[C@H](C(=O)O)CC3)c2C1 [Compound 243], C[C@H](Cc1ccccc1)n1c2ccc3c(c2nc1[C@H]1CC[C@H](C(=O)O)CC1)CN(C(=O)C1CC1)CC3 [Compound 244], COC(=O)N1CCc2ccc3c(nc([C@H]4CCC[C@H](C(=O)O)C4)n3C[C@H]3CC[C@@H](OC)CC3)c2C1 [Compound 245], COC(=O)N1CCc2ccc3c(nc(C45CC(C4)C5)n3C[C@@H](C(=O)O)c3ccccc3)c2C1 [Compound 246], COC(=O)N1CCc2c(C(=O)O)cc3c(nc(N4CCCCC4)n3C[C@H](C)c3ccccc3)c2C1 [Compound 247], COC(=O)N1CCc2ccc3c(nc([C@H]4CC[C@@H](C(=O)O)CC4)n3CC(NC(C)=O)c3ccccc3)c2C1 (stereo partly drawn) [Compound 248], COC(=O)N1CCc2ccc3c(nc([C@H]4CC[C@H](C(=O)O)CC4)n3[C@@H](C)C[C@]3(C)CC[C@@H](OC)CC3)c2C1 [Compound 249], COC(=O)N1CCc2ccc3c(nc([C@H]4CC[C@@H](OC)CC4)n3C[C@H](C(=O)O)c3ccccc3)c2C1 [Compound 250], COC(=O)N1CCc2ccc3c(nc(C4CCCCC4)n3[C@H](C)C[C@@H]3CCCC[C@H]3C(=O)O)c2C1 [Compound 251], COC(=O)N1CCc2ccc3c(nc(C4CCCCC4)n3CC[C@H]3CCCC[C@@H]3C(=O)O)c2C1 [Compound 252], COC(=O)N1CCc2ccc3c(nc([C@H]4CC[C@H](C(=O)O)CC4)n3[C@H](C)Cc3cc(F)cc(F)c3)c2C1 [Compound 253], COC(=O)N1CCc2ccc3c(nc([C@H]4CCC[C@H](C(=O)O)C4)n3Cc3cncc(Cl)n3)c2C1 [Compound 254], COC(=O)N1CCc2ccc3c(nc([C@H]4CCC[C@H](C(=O)O)C4)n3C[C@H]3CC[C@H](OC)CC3)c2C1 [Compound 255], COC(=O)N1CCc2c([C@H]3CCOC3)cc3c(nc(C4CCC(C(=O)O)CC4)n3[C@@H](C)Cc3ccccc3)c2C1 (stereo partly drawn) [Compound 256], COC(=O)N1CCc2ccc3c(nc([C@@H]4CCCOC4)n3C[C@H](C(=O)O)c3ccccc3)c2C1 [Compound 257], COC(=O)N1CCc2ccc3c(nc(-c4ccc(C(C)(C)C(=O)O)cc4)n3[C@@H](C)Cn3cc(Cl)cn3)c2C1 [Compound 258], COC(=O)N1CCc2ccc3c(nc([C@@H]4CCC[C@@H](C(=O)O)C4)n3C[C@H]3CC[C@@H](OC)CC3)c2C1 [Compound 259]
